Reference: patent publication US20070027118A1 (priority 2005, published 2007)

Legend:
11β-hsd-1 enzyme [1] = biological target: T1, 11β-hsd-1 enzyme (Homo sapiens, UniProt P28845); assay: biochemical; conditions: for inhibition: read-out: % Inh @ 0.1 mM; for inhibition at 0.1 µM: read-out: % Inh @ 0.1 μM
Protocol: Percentage of inhibition was determined in a 100 mM Triethanolamine buffer, pH 8.0, 200 mM NaCl, 0.02% n-dodecyl β-D-maltoside and 5 mM β-ME. A typical reaction was carried on a Corning® u-bottom 96-well plate and is described as follows: 11β-hsd-1 enzyme (5 nM, final concentration) was pre-incubated in the presence of the inhibitor and NADPH (500 μM, final concentration) for at least 30 minutes
in the assay buffer. When pre-incubation was completed, the reaction was initiated by adding the regenerating system (2 mM Glucose-6-Phosphate, 1U/mL Glucose-6-Phosphate dehydrogenase, and 6 mM MgCl2, all the concentration reported are final in the assay buffer), and 3H-cortisone (200 nM, final concentration). After 60 minutes, 60 μL of the assay mixture was transferred to a second 96-well plate and mixed with an equal volume of dimethylsulfoxide to stop the reaction. A 15 μL aliquot from the reaction mixture was loaded into a C-18 column (Polaris C18-A, 50×4.6 mm, 5 μ, 180 Angstrom from Varian) connected to an automated High-throughput Liquid Chromatography instrument developed by Cohesive Technologies Inc of Franklin, Mass., with a […] model 3 Radio-HPLC detector from IN/US of Tampa, Fla. The substrate and product peaks were separated by using an isocratic mixture of 43:57 methanol to water (v/v) at a flow rate of 1.0 mL/min.
Percent Inhibition was calculated based on the following equation: (1-(3H-Cortisol peak area in the […] of inhibitor)×100).

11β-hsd-1 enzyme [2] = biological target: T1, 11β-hsd-1 enzyme; assay: biochemical
Protocol: The 11β-hsd-1 assay was performed in a 100 mM Triethanolamine buffer pH 8.0, containing 200 mM NaCl, 0.02% n-dodecyl β-D-maltoside, 5% glycerol, 5 mM β-mercaptoethanol. A typical reaction for the determination of Kiapp values was carried at R.T. in a Corning® u-bottom 96-well plate and is described as follows: 11β-hsd-1 enzyme (5 nM, final concentration) was pre-incubated in the presence of the inhibitor and NADPH (500 μM, final concentration) for at least 30 minutes in the assay buffer. When pre-incubation was completed, the reaction was initiated by adding the regenerating system (2 mM Glucose-6-Phosphate, 1U/mL Glucose-6-Phosphate dehydrogenase, and 6 mM MgCl2, all the concentration reported are final in the assay buffer), and 3H-cortisone (200 nM, final concentration). After 60 minutes, 60 μL of the assay mixture was transferred to a second 96-well plate and mixed with an equal volume of dimethylsulfoxide to stop the reaction. A 15 μL aliquot from the reaction mixture was loaded into a C-18 column (Polaris C18-A, 50×4.6 mm, 5 μ, 180 Angstrom from Varian) connected to an automated High-throughput Liquid Chromatography instrument developed by Cohesive Technologies Inc, of Franklin, Mass. USA, with a β-RAM model 3 Radio-HPLC detector from IN/US, of Tampa, Fla. USA. The substrate and product peaks were separated by using an isocratic mixture of 43:57 methanol to water (v/v) at a flow rate of 1.0 mL/min.
The initial reaction velocities were measured by stopping the reaction at 60 min and by measuring the area of product formation in the absence and the presence of various concentrations of inhibitors. The Kiapp values were determined using the equation for tight-binding inhibitor developed by Morrison, J. F. (Morrison J. F. Biochim BiophysActa. 1969; 185: 269-86).
The radiolabeled [1,2-3H]-cortisone is commercially available from American Radiolabeled Chemicals Inc of St. Louis, Mo. USA. NADPH, Glucose-6-Phosphate, and Glucose-6-Phosphate dehydrogenase were purchased from Sigma®.
(Morrison J. F. Biochim Biophys Acta. 1969; 185: 269-86).

T1 sequence (P28845 whole entry, species assumed): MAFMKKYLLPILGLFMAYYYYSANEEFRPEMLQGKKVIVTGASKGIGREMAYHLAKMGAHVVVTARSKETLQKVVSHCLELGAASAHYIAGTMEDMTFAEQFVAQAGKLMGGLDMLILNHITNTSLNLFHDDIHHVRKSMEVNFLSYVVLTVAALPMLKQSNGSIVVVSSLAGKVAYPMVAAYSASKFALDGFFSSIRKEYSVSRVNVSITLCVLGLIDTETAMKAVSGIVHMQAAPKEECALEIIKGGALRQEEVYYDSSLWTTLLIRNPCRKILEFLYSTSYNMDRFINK

| Compound | inhibition (11β-hsd-1 enzyme [1]) | Ki (11β-hsd-1 enzyme [2]) | inhibition at 0.1 µM (11β-hsd-1 enzyme [1]) |
| --- | --- | --- | --- |
| CCc1cccc(NS(=O)(=O)N2CCCC(c3ccnc(N4CCOCC4)n3)C2)n1 (stereo not shown) [Example 71, N-(6-ethylpyridin-2-yl)-3-(2-morpholin-4-ylpyrimidin-4-yl)pipendine-1-sulfonamide] | 92.7% | 23 nM |  |
| CCCC1CCCCN1S(=O)(=O)Nc1cccc(CC)n1 (stereo not shown) [Example 103, N-(6-ethylpyridin-2-yl)-2-propylpiperidine-1-sulfonamide] | 82.2% | 24 nM |  |
| O=C(OCc1ccccc1)N1CCCN(S(=O)(=O)Nc2ccc3ccccc3n2)CC1 [Example 164, benzyl 4-[(quinolin-2-ylamino)sulfonyl]-14-diazepane-1-carboxylate] | 81.4% | 38 nM |  |
| COc1ccc2oc(N3CCN(S(=O)(=O)Nc4cccc(C)n4)CC3)nc2c1 [Example 137, 4-(5-methoxy-13-benzoxazol-2-yl)-N-(6-methylpyridin-2-yl)piperazine-1-sulfonamide] | 93.8% | 9.9 nM |  |
| Cc1cccc(NS(=O)(=O)N2CCCC(COCC3CC3)CC2)n1 (stereo not shown) [Example 86, 4-[(cyclopropylmethoxy)-methyl]-N-(6-methylpyridin-2-yl)azepane-1-sulfonamide] | 87.6% | 98 nM |  |
| Cc1cccc(NS(=O)(=O)N2CCCC(c3ccc(F)cc3)C2)n1 (stereo not shown) [Example 22] |  | 22 nM | 90% |
| N#Cc1ccc(C2CCN(S(=O)(=O)Nc3ccc4ccccc4n3)CC2)nc1 [Example 38] |  | 31 nM | 100% |
| CCCC1CCN(S(=O)(=O)Nc2cccc(CC)n2)CC1 [Example 89, N-(6-ethylpyridin-2-yl)-4-propylpiperidine-1-sulfonamide] | 100% | 1 nM |  |
| O=S(=O)(Nc1ccc2ccccc2n1)N1CCN(c2nc3ncccc3o2)CC1 [Example 176, 4-[13]oxazolo[45-b]pyridin-2-yl-N-quinolin-2-ylpiperazine-1-sulfonamide] | 70.4% | 110 nM |  |
| CC(C)c1cccc(NS(=O)(=O)N2CCN(c3ccc(C#N)cn3)CC2)n1 [Example 32, 4-(5-cyanopyridin-2-yl)-N-(6-isopropylpyridin-2-yl)piper-azine-1-sulfonamide] |  | 2.4 nM | 97% |
| CCc1cccc(NS(=O)(=O)N2CCC(COCc3cccc(OC)c3)CC2)n1 [Example 94, N-(6-ethylpyridin-2-yl)-4-{[(3-methoxybenzyl)oxy]-methyl}pipendine-1-sulfonamide] | 40.7% |  |  |
| COc1cc2c(nn1)CCN(S(=O)(=O)Nc1ccc3ccccc3n1)CC2 [Example 170, 3-methoxy-N-quinolin-2-yl-5689-tetrahydro-7H-pyridazino[34-d]azepine-7-sulfonamide] | 21.2% |  |  |
| CCc1cccc(NS(=O)(=O)N2CCN(c3nc4cc(OC)ccc4o3)CC2)n1 [Example 185, N-(6-ethylpyridin-2-yl)-4-(5-methoxy-13-benzoxazol-2-yl)piperazine-1-sulfonamide] | 48.9% |  |  |
| O=S(=O)(Nc1ccc2ccccc2n1)N1CCN(c2ncccc2C(F)(F)F)CC1 [Example 159, N-quinolin-2-yl-4-[3-(trifluoromethyl)pyridin-2-yl]piperazine-1-sulfonamide] | 53.4% |  |  |
| Cc1cccc(NS(=O)(=O)N2CCN(c3nc4ncccc4o3)CC2)n1 [Example 152, N-(6-methylpyridin-2-yl)-4-[13]oxazolo[45-b]pyridin-2-ylpiperazine-1-sulfonamide] | 47.6% |  |  |
| Cc1cc(N)nc(NS(=O)(=O)N2CCn3cc(C(F)(F)F)nc3C2)c1 [Example 51] |  |  | 38% |
| Cc1cc(C)nc(NS(=O)(=O)N2CCc3ccc(S(C)(=O)=O)cc3CC2)c1 [Example 41] |  |  | 55% |
| Cc1cc(N)nc(NS(=O)(=O)N2CCn3c(nc4cc(Cl)ccc43)C2)c1 [Example 48] |  |  | 100% |

| Compound | inhibition (11β-hsd-1 enzyme [1]) | Ki (11β-hsd-1 enzyme [2]) | inhibition at 0.1 µM (11β-hsd-1 enzyme [1]) |
| --- | --- | --- | --- |
| CCc1cccc(NS(=O)(=O)N2CCC(COCc3ccccc3F)CC2)n1 [Example 92, N-(6-ethylpyridin-2-yl)-4-{[(2-fluorobenzyl)oxy]meth-yl}piperidine-1-sulfonamide] | 67.5% |  |  |
| Cc1cccc(NS(=O)(=O)N2CCN(c3ncccc3C)CC2)n1 [Example 4] |  |  | 26.6% |
| CCc1cccc(NS(=O)(=O)N2CCCN(c3ncccn3)CC2)n1 [Example 172, N-(6-ethylpyridin-2-yl)-4-pyrimidin-2-yl-14-diazepane-1-sulfonamide] | 60.2% |  |  |
| Cc1cccc(NS(=O)(=O)N2CCN(Cc3ccccc3)CC2)n1 [Example 7] |  |  | 17.7% |
| CCc1cccc(NS(=O)(=O)N2CCC(c3ccc(C(=O)NC4CC4)cc3)CC2)n1 [Example 78, N-cyclopropyl-4-(1-{[(6-ethylpyridin-2-yl)amino]sulfonyl}piperi-din-4-yl)benzamide] | 64.2% |  |  |
| CCc1cccc(NS(=O)(=O)N2CCc3cc(OC)c(OC)cc3C2)n1 [Example 192, N-(6-ethylpyridin-2-yl)-67-dimethoxy-34-dihydroisoquinoline-2(1H)-sulfonamide] | 29.4% |  |  |
| Cc1ccc(C2(C)CN(S(=O)(=O)Nc3cccc(C)n3)CCO2)cc1 (stereo not shown) [Example 70, 2-methyl-2-(4-methylphenyl)-N-(6-methylpyridin-2-yl)morpholine-4-sulfonamide] | 85.3% |  |  |
| Cc1cccc(NS(=O)(=O)N2CCN(c3cc(C#N)ccn3)CC2)n1 [Example 135, 4-(4-cyanopyridin-2-yl)-N-(6-methylpyridin-2-yl)piperazine-1-sulfonamide] | 29.9% |  |  |
| Cc1cccc(NS(=O)(=O)N2C[C@H]3C[C@@H]2CN3c2ccc(C#N)cn2)n1 [Example 24] |  |  | 0% |
| Cc1cc(N)cc(NS(=O)(=O)N2CCC(Oc3ccccc3F)CC2)c1 [Example 53] |  |  | 100% |
| C[C@@H]1CN(S(=O)(=O)Nc2cccc(CO)n2)CCN1c1ncc(F)cn1 [Example 40, (3R)-4-(5-fluoropyrimidin-2-yl)-N-[6-(hydroxymethyl)pyridin-2-yl]-3-methylpiperazine-1-sulfonamide] |  |  | 100% |
| CCc1cccc(NS(=O)(=O)N2CCC(c3ccc(C(=O)N4CCOCC4)cc3)CC2)n1 [Example 77, N-(6-ethylpyridin-2-yl)-4-[4-(morpholin-4-ylcarbonyl)phenyl]piperi-din-1-sulfonamide] | 48.4% |  |  |
| CCc1cccc(NS(=O)(=O)N2C[C@@H]3C[C@H]2CN3c2ccccc2)n1 [Example 69] |  |  | 5.6% |
| CCc1cccc(NS(=O)(=O)N2CCC(n3c(C)nnc3CC)CC2)n1 [Example 107, 4-(3-ethyl-5-methyl-4H-124-triazol-4-yl)-N-(6-ethyl-pyridin-2-yl)piperidine-1-sulfonamide] | 0% |  |  |
| CCc1cccc(NS(=O)(=O)N2CCC3(CCc4cc(Cl)ccc4O3)CC2)n1 [Example 63] |  |  | 40% |
| CCc1cccc(NS(=O)(=O)N2CCCN(C(=O)OCc3ccccc3)CC2)n1 [Example 182, benzyl 4-{[(6-ethylpyridin-2-yl)amino]sulfonyl}-14-diazepane-1-carboxylate] | 61% |  |  |
| Cc1cccc(NS(=O)(=O)N2CCN(c3ccccn3)CC2)n1 [Example 126, N-(6-methylpyridin-2-yl)-4-pyridin-2-ylpiperazine-1-sulfonamide] | 57.8% |  |  |
| Cc1cc(N)cc(NS(=O)(=O)N2CCC(Oc3cccc(F)c3)CC2)c1 [Example 54] |  |  | 100% |
